Laboratory results: US20250205256A1 (GH RESEARCH IRELAND LIMITED, priority 2022, published 2025)

Assay: Pharmacokinetics after single inhaled dose of 5-MeO-DMT (LC-MS/MS)
Assay type: in vivo, human
Set-up: blood concentration relative to LLOQ: dose or concentration left out as unconfirmed
Settings: metabolite after inhaled 5-MeO-DMT
Protocol: Blood samples were obtained at 1; 2; 4; 7; 10; 15; 20; 30; 45 min and 1; 1.5; 2; 3; 4 hours after administration.
PK parameters were generated by algebraic analysis of the concentration versus time plots for each individual. The analysis was carried out using the software Phoenix WinNonlin 6.3.

## CN(C)CCc1c[nH]c2ccc(O)cc12 [bufotenine]
  blood concentration observations with uptitration scheme: Substantially similar observations
  blood concentration relative to LLOQ: Only in few samples, concentrations were above the lower level of quantification
